Results: patent US20260250250A1, “3-(SULPHONYL OR SULFONIMIDOYL)PROP-2-EN-1-YL]-2-OXO-1,2-DIHYDROPYRIDINE-3-CARBOXAMIDE DERIVATIVES” (Flinder Therapeutics B.V., priority 2022, published 2026)

Columns and labels:
[1] = biological target: T1, human E3 ubiquitin-protein ligase RNF31 (HOIP) (Homo sapiens, UniProt Q96EP0); assay: Cell-free HTRF-based HOIP inhibition assay; type: biochemical
T1 sequence (Q96EP0 695-1072 limits assumed): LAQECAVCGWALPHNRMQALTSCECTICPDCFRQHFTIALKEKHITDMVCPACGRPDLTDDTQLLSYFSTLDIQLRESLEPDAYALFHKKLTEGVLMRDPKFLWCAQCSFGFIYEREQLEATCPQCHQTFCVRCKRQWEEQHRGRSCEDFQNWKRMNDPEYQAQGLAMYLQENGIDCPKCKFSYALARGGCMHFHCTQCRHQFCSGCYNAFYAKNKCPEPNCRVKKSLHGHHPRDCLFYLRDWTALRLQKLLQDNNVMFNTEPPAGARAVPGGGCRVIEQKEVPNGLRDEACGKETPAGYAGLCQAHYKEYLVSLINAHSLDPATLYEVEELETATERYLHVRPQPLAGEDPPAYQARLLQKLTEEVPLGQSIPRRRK
Method in brief: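 Recombinant human HOIP fragment (E. coli) preincubated with compounds (100-0.005 μM, 1% DMSO) and E1 for 1 h at 25° C. E2 and substrates then added; reaction 2.5 h at 25° C. HTRF read-out, excitation 337 nm, emissions 665/620 nm.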

NF-κB signaling pathway = assay: Cell-based dual luciferase NF-κB reporter assay (HEK293 cells, TNF stimulated); conditions: Homo sapiens, HEK293
Method in brief: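 HEK293 cells transfected with Firefly luciferase and NF-κB-response-element NanoLuc plasmids; compounds at 100–0.005 µM in 1% DMSO. Cells stimulated with 2.5 ng/mL TNF 30 min after compound addition. Firefly and NanoLuc activities read after 6 h by Nano-Glo dual-luciferase detection.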

[2] = test system: bladder carcinoma RT4 cell line; assay: TNF-α-induced cytotoxicity assay (CellTiter-Glo viability); type: cell-based; conditions: Homo sapiens, RT-4, 72 h
Method in brief: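 RT4 bladder carcinoma cells, 1000 per well, stimulated with 1.25 ng/mL TNFα together with compound for 72 h at 37° C., 5% CO2. Viability read by CellTiter-Glo luminescence, proportional to cellular ATP, as a measure of HOIP-dependent cytotoxicity.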

SMILES: O=C(NC/C=C/S(=O)(=O)c1ccccc1)c1cc2c([nH]c1=O)CCN(C(=O)OCC(F)F)C2 [Example 77, 2,2-Difluoroethyl 3-{[(2E)-3-(benzenesulfonyl)prop-2-en-1-yl]carbamoyl}-2-oxo-1,2,5,6,7,8-hexahydro-1,6-naphthyridine-6-carboxylate]
- IC50 [1]: ≤ 100 nM
- IC50 (NF-κB signaling pathway): ≤ 1000 nM
- IC50 [2]: ≤ 10000 nM

SMILES: COc1ccc(S(=N)(=O)/C=C/CNC(=O)c2cc3c([nH]c2=O)CCCC3)c(C)c1 (stereo not drawn) [Example 139, N-[(2E)-3-[imino(4-methoxy-2-methylphenyl)oxo-λ^6-sulfanyl]prop-2-en-1-yl]-2-oxo-1,2,5,6,7,8-hexahydroquinoline-3-carboxamide]
- IC50 [1]: ≤ 1000 nM
- IC50 (NF-κB signaling pathway): ≤ 1000 nM
- IC50 [2]: ≤ 1000 nM

SMILES: O=C(NCC=CS(=O)(=O)c1ccccc1)c1cc2c([nH]c1=O)CCN(C(=O)OC1CCOC1)C2 [Example 81, (3S)-Oxolan-3-vi 3-{[(2E)-3-(benzenesulfonyl)prop-2-en-1-yl]carbamoyl}-2-oxo-1,2,5,6,7,8-hexahydro-1,6-naphthyridine-6-carboxylate]
- IC50 [1]: ≤ 1000 nM
- IC50 (NF-κB signaling pathway): ≤ 10000 nM
- IC50 [2]: ≤ 10000 nM

SMILES: COc1ccc(S(=N)(=O)/C=C/CNC(=O)c2cc3c([nH]c2=O)CCOC3)cc1F (stereo not drawn) [Example 145, N-[(2E)-3-[(3-fluoro-4-methoxyphenyl)(imino)oxo-λ^6-sulfanyl]prop-2-en-1-yl]-2-oxo-1H,2H,5H,7H,8H-pyrano[4,3-b]pyridine-3-carboxamide]
- IC50 [1]: ≤ 1000 nM
- IC50 (NF-κB signaling pathway): ≤ 100000 nM
- IC50 [2]: ≤ 10000 nM

SMILES: Cc1nnc(COC(=O)N2CCc3[nH]c(=O)c(C(=O)NC/C=C/S(=O)(=O)c4ccccc4)cc3C2)o1 [Example 71, (5-methyl-1,3,4-oxadiazol-2-yl)methyl 3-{[(2E)-3-(benzenesulfonyl)prop-2-en-1-yl]carbamoyl}-2-oxo-1,2,5,6,7,8-hexahydro-1,6-naphthyridine-6-carboxylate]
- IC50 [1]: ≤ 1000 nM
- IC50 (NF-κB signaling pathway): ≤ 100000 nM
- IC50 [2]: ≤ 100000 nM

SMILES: O=C(NC/C=C/S(=O)(=O)c1ccc(Cl)cc1)c1cc2c([nH]c1=O)CCN(Cc1ccccc1)C2 [Example 29, 6-benzyl-N-[(2E)-3-(4-chlorobenzenesulfonyl)prop-2-en-1-yl]-2-oxo-1,2,5,6,7,8-hexahydro-1,6-naphthyridine-3-carboxamide]
- IC50 [1]: ≤ 100 nM
- IC50 (NF-κB signaling pathway): ≤ 1000 nM
- IC50 [2]: ≤ 1000 nM

SMILES: O=C(NC/C=C/S(=O)(=O)c1ccc(F)cc1Cl)c1cc(-c2ccccc2)c[nH]c1=O [Example 128, N-[(2E)-3-(2-chloro-4-fluorobenzenesulfonyl)prop-2-en-1-yl]-2-oxo-5-phenyl-1,2-dihydropyridine-3-carboxamide]
- IC50 [1]: ≤ 1000 nM
- IC50 (NF-κB signaling pathway): ≤ 10000 nM
- IC50 [2]: ≤ 10000 nM

SMILES: O=C(NC/C=C/S(=O)(=O)c1ccc(Cl)cc1)c1cc2c([nH]c1=O)CCN(C(=O)OCCF)C2 [Example 93, 2-fluoroethyl 3-{[(2E)-3-(4-chlorobenzenesulfonyl)prop-2-en-1-yl]carbamoyl}-2-oxo-1,2,5,6,7,8-hexahydro-1,6-naphthyridine-6-carboxylate]
- IC50 [1]: ≤ 100 nM
- IC50 (NF-κB signaling pathway): ≤ 1000 nM
- IC50 [2]: ≤ 1000 nM

SMILES: O=C(NC/C=C/S(=O)(=O)c1ccccc1)c1cc2c([nH]c1=O)CCN(C(=O)OC1CCC1)C2 [Example 70, cyclobutyl 3-{[(2E)-3-(benzenesulfonyl)prop-2-en-1-yl]carbamoyl}-2-oxo-1,2,5,6,7,8-hexahydro-1,6-naphthyridine-6-carboxylate]
- IC50 [1]: ≤ 100 nM
- IC50 (NF-κB signaling pathway): ≤ 1000 nM
- IC50 [2]: ≤ 1000 nM

SMILES: COc1ccc(S(=N)(=O)/C=C/CNC(=O)c2cc3c([nH]c2=O)CCCC3)cc1Cl (stereo not drawn) [Example 133, N-[(2E)-3-[(3-chloro-4-methoxyphenyl)(imino)oxo-λ^6-sulfanyl]prop-2-en-1-yl]-2-oxo-1,2,5,6,7,8-hexahydroquinoline-3-carboxamide]
- IC50 [1]: ≤ 100 nM
- IC50 (NF-κB signaling pathway): ≤ 1000 nM
- IC50 [2]: ≤ 1000 nM

SMILES: COc1ccc(S(=N)(=O)/C=C/CNC(=O)c2cc3c([nH]c2=O)CCN(CC(F)(F)F)C3)cc1F (stereo not drawn) [Example 170, N-[(2E)-3-[(3-fluoro-4-methoxyphenyl)(imino)oxo-λ^6-sulfanyl]prop-2-en-1-yl]-2-oxo-6-(2,2,2-trifluoroethyl)-1,2,5,6,7,8-hexahydro-1,6-naphthyridine-3-carboxamide]
- IC50 [1]: ≤ 1000 nM
- IC50 (NF-κB signaling pathway): ≤ 10000 nM
- IC50 [2]: ≤ 10000 nM

SMILES: O=C(NC/C=C/S(=O)(=O)c1ccccc1)c1cc2cccnc2[nH]c1=O [Example 47, N-[(2E)-3-(benzenesulfonyl)prop-2-en-1-yl]-2-oxo-1,2-dihydro-1,8-naphthyridine-3-carboxamide]
- IC50 [1]: ≤ 1000 nM
- IC50 (NF-κB signaling pathway): ≤ 10000 nM
- IC50 [2]: ≤ 10000 nM

SMILES: O=C(NC/C=C/S(=O)(=O)c1ccc(F)cc1)c1cc2c([nH]c1=O)CCCC2 [Example 16, N-[(2E)-3-(4-fluorobenzenesulfonyl)prop-2-en-1-yl]-2-oxo-1,2,5,6,7,8-hexahydroquinoline-3-carboxamide]
- IC50 [1]: ≤ 100 nM
- IC50 (NF-κB signaling pathway): ≤ 1000 nM
- IC50 [2]: ≤ 1000 nM

SMILES: CC(C)(C)CC(=O)N1CCc2[nH]c(=O)c(C(=O)NC/C=C/S(=O)(=O)c3ccccc3)cc2C1 [Example 120, N-[(2E)-3-(benzenesulfonyl)prop-2-en-1-yl]-6-(3,3-dimethylbutanoyl)-2-oxo-1,2,5,6,7,8-hexahydro-1,6-naphthyridine-3-carboxamide]
- IC50 [1]: ≤ 1000 nM
- IC50 (NF-κB signaling pathway): ≤ 10000 nM
- IC50 [2]: ≤ 10000 nM

SMILES: COc1ccc(S(=O)(=O)/C=C/CNC(=O)c2cc3c([nH]c2=O)CCN(C(=O)OC(C)(C)C)C3)cc1F [Example 26, tert-butyl 3-{[(2E)-3-(3-fluoro-4-methoxybenzenesulfonyl)prop-2-en-1-yl]carbamoyl}-2-oxo-1,2,5,6,7,8-hexahydro-1,6-naphthyridine-6-carboxylate]
- IC50 [1]: ≤ 100 nM
- IC50 (NF-κB signaling pathway): ≤ 1000 nM
- IC50 [2]: ≤ 10000 nM

SMILES: O=C(NC/C=C/S(=O)(=O)c1ccc(Cl)cc1)c1cc2c([nH]c1=O)CCCC2 [Example 21, N-[(2E)-3-(4-chlorobenzenesulfonyl)prop-2-en-1-yl]-2-oxo-1,2,5,6,7,8-hexahydroquinoline-3-carboxamide]
- IC50 [1]: ≤ 100 nM
- IC50 (NF-κB signaling pathway): ≤ 100 nM
- IC50 [2]: ≤ 1000 nM

SMILES: COc1ccc(S(=N)(=O)/C=C/CNC(=O)c2cc3c([nH]c2=O)CCCC3)cc1C (stereo not drawn) [Example 137, N-[(2E)-3-[imino(4-methoxy-3-methylphenyl)oxo-λ^6-sulfanyl]prop-2-en-1-yl]-2-oxo-1,2,5,6,7,8-hexahydroquinoline-3-carboxamide]
- IC50 [1]: ≤ 1000 nM
- IC50 (NF-κB signaling pathway): ≤ 1000 nM
- IC50 [2]: ≤ 1000 nM

SMILES: CC(C)(C)OC(=O)N1CCc2[nH]c(=O)c(C(=O)NC/C=C/S(=O)(=O)c3ccc(Cl)cc3)cc2C1 [Example 27, tert-butyl 3-{[(2E)-3-(4-chlorobenzenesulfonyl)prop-2-en-1-yl]carbamoyl}-2-oxo-1,2,5,6,7,8-hexahydro-1,6-naphthyridine-6-carboxylate]
- IC50 [1]: ≤ 100 nM
- IC50 (NF-κB signaling pathway): ≤ 1000 nM
- IC50 [2]: ≤ 1000 nM

SMILES: O=C(NC/C=C/S(=O)(=O)c1ccccc1)c1cc2c([nH]c1=O)CCCCC2 [Example 38, N-[(2E)-3-(benzenesulfonyl)prop-2-en-1-yl]-2-oxo-1H,2H,5H,6H,7H,8H,9H-cyclohepta[b]pyridine-3-carboxamide]
- IC50 [1]: ≤ 1000 nM
- IC50 (NF-κB signaling pathway): ≤ 1000 nM
- IC50 [2]: ≤ 1000 nM

SMILES: COc1ccc(S(=N)(=O)/C=C/CNC(=O)c2cc3c([nH]c2=O)CCCC3)cc1F (stereo not drawn) [Example 30, N-[(2E)-3-[(3-fluoro-4-methoxyphenyl)(imino)oxo-λ^6-sulfanyl]prop-2-en-1-yl]-2-oxo-1,2,5,6,7,8-hexahydroquinoline-3-carboxamide]
- IC50 [1]: ≤ 100 nM
- IC50 (NF-κB signaling pathway): ≤ 1000 nM
- IC50 [2]: ≤ 1000 nM

SMILES: O=C(NC/C=C/S(=O)(=O)c1ccccc1)c1cc2c([nH]c1=O)CCN(C(=O)OCCF)C2 [Example 76, 2-fluoroethyl 3-{[(2E)-3-(benzenesulfonyl)prop-2-en-1-yl]carbamoyl}-2-oxo-1,2,5,6,7,8-hexahydro-1,6-naphthyridine-6-carboxylate]
- IC50 [1]: ≤ 1000 nM
- IC50 (NF-κB signaling pathway): ≤ 10000 nM
- IC50 [2]: ≤ 10000 nM

SMILES: CC(=O)N1CCC(OC(=O)N2CCc3[nH]c(=O)c(C(=O)NC/C=C/S(=O)(=O)c4ccc(Cl)cc4)cc3C2)CC1 [Example 92, 1-acetylpiperidin-4-vi 3-{[(2E)-3-(4-chlorobenzenesulfonyl)prop-2-en-1-yl]carbamoyl}-2-oxo-1,2,5,6,7,8-hexahydro-1,6-naphthyridine-6-carboxylate]
- IC50 [1]: ≤ 100 nM
- IC50 (NF-κB signaling pathway): ≤ 10000 nM
- IC50 [2]: ≤ 100000 nM

SMILES: COCC(C)OC(=O)N1CCc2[nH]c(=O)c(C(=O)NC/C=C/S(=O)(=O)c3ccc(Cl)cc3)cc2C1 (stereo not drawn) [Example 94, 1-methoxypropan-2-yl 3-{[(2E)-3-(4-chlorobenzenesulfonyl)prop-2-en-1-yl]carbamoyl}-2-oxo-1,2,5,6,7,8-hexahydro-1,6-naphthyridine-6-carboxylate]
- IC50 [1]: ≤ 100 nM
- IC50 (NF-κB signaling pathway): ≤ 1000 nM
- IC50 [2]: ≤ 10000 nM
